Some test systems named below: A498; ACHN; CCRF-CEM; EKVX; HL-60; K562; MDA-MB-231; MDA-MB-435; MOLT-4; NCI-H226; NCI-H460; NCI/ADR-RES; OVCAR-3; OVCAR-8; PC-3; SF-295; SF-539; SK-MEL-5; SR; SW-620.
Common to all, as to experiment: NCI anticancer screen, dose series, 48 h

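Growth conditions: 96-well plates. Treatment: test compound, 48 hours, 5 concentrations. Analysis: linear interpolation between bracketing concentrations; unreached endpoints set to highest concentration. Here, GI50 denotes the concentration required for 50% inhibition of growth.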 Calls of active or inactive are those of the source. Cut-off read from the data, not from the text of the source: active = GI50 up to about 1.1 µM and inactive = higher.

With `Cc1ncc(CO)c(/C=N/CCCCCC/N=C/c2c(CO)cnc(C)c2[O-])c1[O-].[Mg+2]`, the GI50 is > 100 µM (inactive) in the assay with A498; > 100 µM (inactive) in the assay with ACHN; 36.2 µM (inactive) with CCRF-CEM; > 100 µM (inactive) with EKVX; > 100 µM (inactive) in the assay on HL-60; > 100 µM (inactive) with K562. Besides, the GI50 in the assay on MDA-MB-231, in the assay on MDA-MB-435, in the assay with MOLT-4, with NCI-H226, in the assay on NCI-H460 and in the assay on NCI/ADR-RES was > 100 µM (inactive) throughout. Also, the GI50 with OVCAR-3 was > 100 µM (inactive); in the assay with OVCAR-8, > 67.9 µM (inactive); with PC-3, > 100 µM (inactive); in the assay on SF-295, > 100 µM (inactive); in the assay with SF-539 it was > 100 µM (inactive); with SK-MEL-5 it was > 100 µM (inactive). For the same compound, the values for the GI50 with SR and in the assay on SW-620 were 92.7 µM (inactive) and > 100 µM (inactive), respectively.

On to `CCC/N=C(/NC(=O)c1ccc(Cl)cc1)SC`, for which the GI50 with A498 is 27.4 µM (inactive); in the assay on ACHN it was 39.8 µM (inactive); in the assay on CCRF-CEM, > 100 µM (inactive); with EKVX, > 100 µM (inactive); in the assay with HL-60 it was 58.7 µM (inactive); in the assay on K562 it was 44.1 µM (inactive). The GI50 is > 100 µM (inactive) with MDA-MB-231; > 100 µM (inactive) with MDA-MB-435; 58.7 µM (inactive) with MOLT-4; 43.1 µM (inactive) in the assay with NCI-H226; 90.6 µM (inactive) with NCI-H460; > 100 µM (inactive) with NCI/ADR-RES. Moreover, the GI50 in the assay on OVCAR-3 was 0.0473 µM (active); with OVCAR-8 it was > 100 µM (inactive); with PC-3 it was 80.5 µM (inactive); in the assay with SF-295, > 100 µM (inactive); in the assay with SF-539, > 100 µM (inactive); in the assay on SK-MEL-5 it was 48.6 µM (inactive). Moreover, the GI50 in the assay on SR is 36.8 µM (inactive); in the assay on SW-620, > 100 µM (inactive).

As for `C[C@]12CC[C@H](O)C[C@@H]1CC[C@@H]1[C@@H]2CC[C@]2(C)[C@@H](c3cc(C(F)(F)F)[nH]n3)CC[C@@H]12`, the GI50 in the assay with A498 was 8.59 µM (inactive); in the assay on ACHN it was 7.21 µM (inactive); in the assay with CCRF-CEM, 0.957 µM (active); in the assay with EKVX, 10.8 µM (inactive); in the assay with HL-60 it was 0.908 µM (active); with K562 it was 3.25 µM (inactive). For the same compound, the GI50 was 6.67 µM (inactive) in the assay on MDA-MB-231; 10.1 µM (inactive) in the assay on MDA-MB-435; 3.95 µM (inactive) with MOLT-4; 14.6 µM (inactive) in the assay with NCI-H226; 3.18 µM (inactive) in the assay with NCI-H460; 6.32 µM (inactive) with NCI/ADR-RES. Besides, the GI50 in the assay with OVCAR-3 was 10.1 µM (inactive); in the assay on OVCAR-8, 5.35 µM (inactive); with PC-3, 6.38 µM (inactive); in the assay with SF-295 it was 4.23 µM (inactive); in the assay on SF-539 it was 7.36 µM (inactive); with SK-MEL-5, 6.82 µM (inactive). The GI50 is 3.87 µM (inactive) in the assay on SR and 12.1 µM (inactive) in the assay on SW-620.

With `CC(=O)OC1C2CCC1C1C2N=NN1c1ccc([N+](=O)[O-])cc1` (centres undefined), the GI50 with A498, in the assay with ACHN, in the assay on CCRF-CEM, with EKVX, in the assay on HL-60 and with MDA-MB-231 was > 100 µM (inactive) throughout. In addition, the GI50 in the assay on MDA-MB-435, in the assay on MOLT-4, in the assay with NCI-H226, in the assay with NCI-H460, in the assay with NCI/ADR-RES and in the assay on OVCAR-3 was > 100 µM (inactive) in each case. Further, the GI50 is > 100 µM (inactive) with OVCAR-8; > 100 µM (inactive) in the assay with PC-3; > 100 µM (inactive) in the assay with SF-295; > 100 µM (inactive) in the assay on SF-539; > 100 µM (inactive) with SK-MEL-5; 15.7 µM (inactive) in the assay on SR. Moreover, the GI50 in the assay with SW-620 was > 100 µM (inactive).

Regarding `CCOC(=O)C(=O)NNc1nc2c(s1)C(=O)c1ccccc1C2=O`, the GI50 was 22.8 µM (inactive) with A498; 2.29 µM (inactive) in the assay on ACHN; 2.34 µM (inactive) in the assay with CCRF-CEM; 7.46 µM (inactive) in the assay with EKVX; 1.47 µM (inactive) in the assay on HL-60; 2.3 µM (inactive) in the assay with K562. Further, the GI50 with MDA-MB-231 was 2.48 µM (inactive); with MDA-MB-435, 1.77 µM (inactive); with MOLT-4, 3.33 µM (inactive); in the assay with NCI-H226, 15.7 µM (inactive); in the assay on NCI-H460, 10.7 µM (inactive); in the assay with NCI/ADR-RES it was 1.87 µM (inactive). In addition, the GI50 in the assay with OVCAR-3 was 1.88 µM (inactive); in the assay on OVCAR-8, 1.97 µM (inactive); in the assay with PC-3, 12 µM (inactive); in the assay with SF-295, 5.01 µM (inactive); in the assay on SF-539, 2.46 µM (inactive); with SK-MEL-5 it was 1.86 µM (inactive). The GI50 was 0.465 µM (active) in the assay on SR and 2.58 µM (inactive) in the assay on SW-620.

With `COC(=O)NC(C(F)(F)F)(C(F)(F)F)P1(=O)OCCCO1`, the GI50 was 17 µM (inactive) with A498; 21.4 µM (inactive) with ACHN; 12.6 µM (inactive) with CCRF-CEM; 16.6 µM (inactive) in the assay on HL-60; 22.9 µM (inactive) with K562; 25.3 µM (inactive) with MDA-MB-231. Moreover, the GI50 in the assay on MDA-MB-435 was 17.2 µM (inactive); in the assay with MOLT-4, 17.1 µM (inactive); in the assay with NCI-H226 it was 16.2 µM (inactive); with NCI-H460, 30.2 µM (inactive); in the assay on NCI/ADR-RES, 39.4 µM (inactive); with OVCAR-3, 28.3 µM (inactive). Besides, the GI50 in the assay on OVCAR-8 was 27.3 µM (inactive); with PC-3, 25.4 µM (inactive); with SF-295, 23.7 µM (inactive); in the assay on SF-539, 21.1 µM (inactive); in the assay on SK-MEL-5, 17.6 µM (inactive); in the assay with SR, 20.7 µM (inactive). The GI50 with SW-620 is 20.7 µM (inactive).

Regarding `N[C@H]1c2c(Br)sc(Br)c2C(=O)[C@H]1O`, the GI50 in the assay on A498 is > 100 µM (inactive); in the assay on ACHN it was 24.7 µM (inactive); in the assay on CCRF-CEM it was 2.72 µM (inactive); in the assay with EKVX it was 12.9 µM (inactive); in the assay on HL-60 it was 2.85 µM (inactive); with K562 it was 3.44 µM (inactive). Besides, the GI50 is 18.7 µM (inactive) with MDA-MB-231; 13.7 µM (inactive) in the assay with MDA-MB-435; 5.14 µM (inactive) in the assay on MOLT-4; 22.2 µM (inactive) in the assay on NCI-H226; 19.2 µM (inactive) in the assay with NCI-H460; 16 µM (inactive) in the assay with NCI/ADR-RES. The GI50 was 7.36 µM (inactive) with OVCAR-3; 12.9 µM (inactive) in the assay on OVCAR-8; 28.5 µM (inactive) with PC-3; 21.7 µM (inactive) with SF-295; 18.5 µM (inactive) in the assay on SF-539; 12.5 µM (inactive) with SK-MEL-5. For the same compound, the figures for the GI50 in the assay with SR and in the assay on SW-620 were 2.69 µM (inactive) and 6.41 µM (inactive), respectively.

Consider `OC[C@H]1CC(c2nn[nH]n2)[C@H](O)[C@@H]1O` (some centres undefined), for which the GI50 in the assay on A498, in the assay with ACHN, with CCRF-CEM, in the assay with HL-60, with K562 and with MDA-MB-231 was > 100 µM (inactive) each time. Moreover, the GI50 in the assay with MDA-MB-435, with MOLT-4, with NCI-H226, in the assay with NCI-H460, with NCI/ADR-RES and with OVCAR-3 was > 100 µM (inactive) in each case. The GI50 in the assay on OVCAR-8, with PC-3, with SF-295, with SF-539, in the assay with SK-MEL-5 and in the assay with SR was > 100 µM (inactive) in each case. For the same compound, the GI50 in the assay with SW-620 is > 100 µM (inactive).

As for `O=C1C=CC(=O)N1n1c(-c2ccccc2)n[nH]c1=O`, the GI50 with A498, in the assay with CCRF-CEM, in the assay with EKVX, in the assay on HL-60, in the assay with K562 and with MDA-MB-231 was > 100 µM (inactive) in each case. In addition, the GI50 in the assay on MDA-MB-435, in the assay with MOLT-4, in the assay on NCI-H226, in the assay with NCI-H460, in the assay with NCI/ADR-RES and in the assay with OVCAR-3 was > 100 µM (inactive) throughout. For the same compound, the GI50 in the assay with OVCAR-8, with PC-3, in the assay on SF-295, in the assay on SF-539, in the assay with SK-MEL-5 and with SR was > 100 µM (inactive) in each case.

As for `CNC(=O)c1cc(NC(=O)N(CCC#N)CCN(C(=O)N[C@@H](Cc2ccccc2)C(=O)N[C@@H](CC(C)C)C(=O)NC)c2ccccc2)ccc1OC`, the GI50 in the assay on A498 is > 49.5 µM (inactive); with ACHN it was > 74.8 µM (inactive); in the assay on CCRF-CEM, > 66.1 µM (inactive); with EKVX, > 100 µM (inactive); in the assay on HL-60, 23.2 µM (inactive); with MDA-MB-231, > 38.3 µM (inactive). Also, the GI50 with MDA-MB-435 is > 100 µM (inactive); in the assay with MOLT-4 it was 49.4 µM (inactive); with NCI-H226, > 100 µM (inactive); with NCI-H460, 15.8 µM (inactive); in the assay with NCI/ADR-RES, > 100 µM (inactive); with OVCAR-3 it was > 65.8 µM (inactive). For the same compound, the GI50 in the assay on OVCAR-8 is > 91.2 µM (inactive); with PC-3, > 80 µM (inactive); with SF-295 it was > 79.3 µM (inactive); with SF-539 it was 36 µM (inactive); in the assay on SK-MEL-5 it was 29.9 µM (inactive); in the assay on SR, 21 µM (inactive). In the assay with SW-620, the GI50 is > 100 µM (inactive).
